Assay results from patent US20220306986A1, “NON-INVASIVE METHODS FOR SELECTIVELY ENRICHING PLURIPOTENT CELLS” (MEMORIAL SLOAN-KETTERING CANCER CENTER, priority 2019, published 2022).

How the values were obtained:
Format in all cases: cell-based, mouse
Nanog-GFP ESCs = assay: Nanog-GFP expression by flow cytometry after pulse treatment; settings: 24 h pulse in glutamine-containing S/L medium, 24 h recovery; FIG. 7E-7F
Method: For transient glutamine withdrawal (“pulse”) experiments, cells were initially plated in standard S/L medium as described above. The following day, cells were washed with PBS and then changed to experimental medium containing a 1:1 mix of glutamine-free DMEM and glutamine-free Neurobasal medium including 10% dialyzed FBS, 2-mercaptoethanol, LIF, and containing (“Ctrl”) or lacking (“Pulse”) L-glutamine as indicated. 24 hours later, cells were washed with PBS and then returned to glutamine-replete medium (“Recover”). 24 hours later, cells were subjected to either image analysis, flow cytometry, or plated for colony formation assays as indicated. For glutamine pulse experiments in human ESCs, cells were initially plated at a density of 300,000 cells/well in a tissue-culture treated polystyrene 12-well plate coated with vitronectin (Thermo Fisher Scientific, A14700) in E8 medium (Thermo Fisher Scientific, A1517001) containing 10 uM ROCK inhibitor Y-27632 (Selleck Chemicals S1049). […] Cells were evaluated for GFP and DAPI on either a LSRFortessa or LSR-II machine and FACSDiva software ([…] Dickinson). […] Nanog-GFP expression was measured by GFP mean fluorescence intensity and quantified using FlowJo v9.0. […]

ESCs [1] = assay: Colony formation assay (alkaline phosphatase staining) after pulse treatment
Method: For transient glutamine withdrawal (“pulse”) experiments, cells were initially plated in standard S/L medium as described above. The following day, cells were washed with PBS and then changed to experimental medium containing a 1:1 mix of glutamine-free DMEM and glutamine-free Neurobasal medium including 10% dialyzed FBS, 2-mercaptoethanol, LIF, and containing (“Ctrl”) or lacking (“Pulse”) L-glutamine as indicated. 24 hours later, cells were washed with PBS and then returned to glutamine-replete medium (“Recover”). 24 hours later, cells were subjected to either image analysis, flow cytometry, or plated for colony formation assays as indicated. For glutamine pulse experiments in human ESCs, cells were initially plated at a density of 300,000 cells/well in a tissue-culture treated polystyrene 12-well plate coated with vitronectin (Thermo Fisher Scientific, A14700) in E8 medium (Thermo Fisher Scientific, A1517001) containing 10 uM ROCK inhibitor Y-27632 (Selleck Chemicals S1049). 24 hrs after plating, medium was changed to modified E8 medium containing: DMEM high glucose without glutamine (Thermo Fisher 11960044), 10.7 mg/L Transferrin (Sigma T0665), 64 mg/L L-Ascorbic Acid (Sigma A890), 14 ug/L Sodium Selenite (Sigma S5261), 543 mg/L Sodium Bicarbonate (Research Products International 144558), 19.4 mg/L insulin (Sigma 19278), 100 ug/L bFGF (EMD Millipore GF003AF), 2 ug/L TGFβ1 (Peprotech 10021), and 2 mM L-glutamine. After 24 hrs of culture in modified E8 medium, medium was changed to modified E8 medium containing 2 mM or 0 mM L-glutamine for 24 hrs. All cells were then changed to modified E8 medium containing 2 mM L-glutamine and cultured for 24 hrs before harvest for analysis. […] For ESC colony formation assays, colonies were scored manually in a blinded fashion. For reprogramming experiments, alkaline-phosphatase colonies were scored automatically using ImageJ (NIH). Briefly, images of each well were binarized using the Default function and particles greater than 8 pixels with a circularity of 0.7-1.0 were counted.

ESCs [2] = assay: Glutamine deprivation: growth curves, viability and colony formation; settings: DM-αKG 4 mM
Method: For glutamine deprivation experiments in mouse ESCs, cells were initially plated in standard S/L medium as described above. The following day, cells were washed with PBS and then cultured in experimental medium containing a 1:1 mix of glutamine-free DMEM (Gibco 11960-051) and glutamine-free Neurobasal medium (Gibco 21103-049) including 10% dialyzed FBS, 2-mercaptoethanol, and LIF as described above and containing (“+Q”) or lacking (“−Q”) L-glutamine (2 mM) as indicated. When indicated, dimethyl-α-ketoglutarate (Sigma 349631) dissolved in DMSO was added to a final concentration of 4 mM. […]
ESCs were seeded at a density of 30,000-40,000 cells per well of a 12-well plate. The following day, three wells of each line were counted to determine the starting cell number. […] Cells were counted on the indicated days thereafter using a Beckman Multisizer 4e with a cell volume gate of 400-10,000 fL. […]
Evaluation of cell viability and Nanog-GFP expression. […] Cells were evaluated for GFP and DAPI on either a LSRFortessa or LSR-II machine and FACSDiva software ([…] Dickinson). […] Nanog-GFP expression was measured by GFP mean fluorescence intensity and quantified using FlowJo v9.0. […]

`COC(=O)CCC(=O)C(=O)OC` [cell-permeable αKG, dimethyl-α-ketoglutarate] was tested, and the “Nanog-GFP expression after pulsed treatment” value (Nanog-GFP ESCs) was “transiently increase Nanog-GFP expression”, the “benefit of the glutamine withdrawal pulse on self-renewal (colony formation)” value (ESCs [1]; 4 mM DM-αKG added during 24 h glutamine withdrawal, FIG. 3H) was “abrogated the benefit of the pulse” and the “self-renewal capacity of the ESC population after pulsed treatment (colony formation)” value (ESCs [1]; 24 h pulse, 24 h recovery before plating, FIG. 3G, 7G) was “no durable effect”. The “survival and proliferation in the absence of glutamine (population doublings)” value (ESCs [2]; 48 h glutamine-free medium, FIG. 2G, 2H) was “capable of rescuing survival and proliferation in the absence of glutamine” and the “proliferation, viability and self-renewal of ESCs under glutamine withdrawal” value (ESCs [2]; S/L culture, FIG. 2A, 6A-6B) was “sufficient to compensate for glutamine withdrawal”.
